Measurements from patent US9198915B2, “Methods involving aldose reductase inhibitors” (The Board of Regents of The University of Texas System, priority 2007, dated 2015).

What was measured:
AR [1] = target: AR (Homo sapiens, UniProt P15121); settings: substrate of AR, in the presence of NADPH; cited from earlier work
AR [2] = experiment: RNA interference ablation of AR in SAEC (AR protein by Western blot); assay type: cell-based, human; settings: transient transfection of SAEC, 100 nM, 48 h
Experimental: The ablation of AR mRNA was essentially carried out as described in the art. Briefly, 2×10^5 SAECs were plated in a 6-well plate and grown until ˜80% confluency. The cells were incubated with serum-free medium containing the AR-siRNA ([…] (SEQ ID NO:1)) or scrambled siRNA (AAAATCTCCCTAAATCA TACA (SEQ ID NO:2); control) to a final concentration of 100 nM and the RNAiFect™ transfection reagent (Qiagen). The cells were cultured for 48 h at 37° C., and AR expression was determined by measuring AR protein by Western blot analysis using anti-AR antibodies.
The ablation of AR mRNA was essentially carried out as described in the art. Briefly, 2×10^5 SAECs were plated in a 6-well plate and grown till >80% confluency. The cells were incubated with serum-free medium containing the AR-siRNA ([…]) (SEQ ID NO:1) or scrambled siRNA (AAAATCTCCCTAAATCA TACA (SEQ ID NO:2); control) to a final concentration of 100 nM and the RNAiFect™ transfection reagent (Qiagen). The cells were cultured for 48 h at 37° C., and AR expression was determined by measuring AR protein by Western blot analysis using anti-AR antibodies.

IL-6, IL-8 and PGE2 [3] = experiment: TNF-α- and LPS-induced IL-6, IL-8 and PGE2 secretion by SAEC (ELISA); assay type: cell-based, human; settings: siRNA 100 nM 48 h, then TNF-α or LPS 24 h
IL-6, IL-8 and PGE2 [4] = experiment: RW-induced IL-6, IL-8 and PGE2 secretion by SAEC (ELISA); assay type: cell-based, human; settings: siRNA 100 nM, 48 h, then RW 50 μg/ml 24 h
Experimental: The SAEC were plated in 6-well plates at a density of 2×10^5 cells/well in triplicate for each group. After 24 hours, the medium was replaced with serum-free SABM with or without zopolrestat (20 μM). The growth-arrested and AR ablated cells were stimulated with RW (50 μg/mL) for another 24 hours. The medium was collected from each well, centrifuged and supernatant was analyzed for PGE2 (Cayman Chemical Co., Ann Arbor, Mich.); IL-6 (Diaclone, Stamford, Conn.) and IL-8 (R&D systems Inc, Minneapolis, Minn.) by using an ELISA kits according to the manufacturer's instructions.

| Molecule | Km (AR [1]) | AR protein abolished (AR [2]) | TNF-α and LPS-induced IL-6, IL-8 and PGE2 production after ablation of AR (IL-6, IL-8 and PGE2 [3]) | RW-induced synthesis of IL-6, IL-8 and PGE2 after siRNA ablation of AR (IL-6, IL-8 and PGE2 [4]) |
| --- | --- | --- | --- | --- |
| CCCCCC(O)/C=C/C=O (stereo not shown) [HNE, 4-hydroxynonenal] | 10 to 30 µM |  |  |  |
| AATCGGTGTCTCCAACTTCAA (SEQ ID NO:1) (listed as DNA, chemistry not given here) [AR siRNA, siRNA used to ablate AR mRNA in SAEC, 100 nM] |  | > 95% | significantly prevented | significantly prevented |
